In US10071973B2, “Crystalline isoxazole hydroxamic acid compounds” (priority 2016, dated 2018):
Entries after “also recorded” stand apart in the source; their conditions may differ. Where two headings read alike, the source gives them in different places.

What was measured:
P.A. PAO1 NB52019 = test: MIC by broth microdilution (CLSI), P. aeruginosa; type: cell-based; settings: Pseudomonas aeruginosa, 35° C., 20 hours
Protocol: (§1) Bacterial isolates were cultivated from −70° C. frozen stocks by two consecutive overnight passages at 35° C. in ambient air on 5% blood agar (Remel, Lenexa, Kans.). Quality control strain, P. aeruginosa ATCC 27853, A. baumannii ATCC19606 and E. coli ATCC 25922 are from the American Type Culture Collection (ATCC; Rockville, Md.) and PAO1 was received from Dr. K. Poole.
(§2) Minimal Inhibitory Concentrations (MICs) were determined by the broth microdilution method in accordance with Clinical and Laboratories Institute (CLSI) guidelines (CLSI M100-S25, Performance Standards for Antimicrobial Susceptibility Testing; Twenty-fifth Informational Supplement). In brief, fresh bacterial overnight cultures were resuspended in sterile saline, adjusted to a 0.5 McFarland turbidity standard and then diluted 2000-fold in cation adjusted Mueller-Hinton Broth II (MHB; Remel BBL) to yield a final inoculum of approximately 5×10^5 colony-forming units (CFU)/mL. […] Following incubation, assay plates were read in a microtiter plate reader at 600 nm and visually inspected to confirm the MIC endpoint well with the OD value. The lowest concentration of the compound that prevented visible growth was recorded as the MIC. Performance of the assay was monitored by testing ciprofloxacin against the laboratory quality control strain in accordance with guidelines of the CLSI.

E. coli ATCC 25922 = test: MIC by broth microdilution (CLSI), E. coli, alone and with rifampicin; type: cell-based; settings: Escherichia coli
Protocol: as §1, §2

A. baumannii ATCC19606 = test: MIC by broth microdilution (CLSI), A. baumannii, alone and with rifampicin; type: cell-based; settings: Acinetobacter baumannii
Protocol: as §1, §2

[1] = Hygroscopicity: mass change with relative humidity / deliquescence; type: physicochemical; settings: for hygroscopicity / deliquescence (in words): exposed to air or humidity, amorphous: humidity of about 80% or higher
Protocol: FIG. 4. Isotherm Plots showing reversible mass changes of Crystalline Compound A over a Relative Humidity range of 0-90%.
Primary soller slit 2.5°; secondary soller slit 2.5°; divergent slit 0.6 mm; antiscatter slit 5.0 mm.

[2] = Stability (colour) of the solid on standing at ambient temperature; type: physicochemical; settings: ambient / room temperature, over time
Source text: This material required special handling and was not considered suitable for development as a pharmaceutical.

| SMILES | MIC (P.A. PAO1 NB52019) | MIC (E. coli ATCC 25922; ATCC 25922 / ATCC 29522, in presence of 2 μg/ml rifampicin, read-out: E.C. ATCC 29522 (+2 μg/ml RIF) MIC) | MIC (E. coli ATCC 25922; ATCC25922, broth microdilution, 35° C., 20 hours, read-out: E.C. ATCC 25922 MIC) | MIC (A. baumannii ATCC19606; broth microdilution, 35° C., 20 hours, read-out: A.B. ATCC 19606 MIC) | MIC (A. baumannii ATCC19606; in presence of 2 μg/ml rifampicin, read-out: A.B. ATCC 19606 (+2 μg/ml RIF) MIC) | hygroscopicity / deliquescence (in words) [1] | colour stability on standing [2] | mass increase (hygroscopicity) ([1]; RH=90%) | mass increase (hygroscopicity) ([1]; relative humidity (RH) of 80%) |
| --- | --- | --- | --- | --- | --- | --- | --- | --- | --- |
| C[C@@](CCc1cc(C#CC2CC2)on1)(C(=O)NO)S(C)(=O)=O [A, (R)-4-(5-(cyclopropylethynyl)isoxazol-3-yl)-N-hydroxy-2-methyl-2-(methylsulfonyl)butanamide] | 0.25 µg/mL | ≤ 0.06 µg/mL | 2 µg/mL | > 64 µg/mL | 0.125 µg/mL |  |  |  |  |
| C[C@@](CCc1cc(C#CC2CC2)on1)(C(=O)NO)S(C)(=O)=O [amorphous Compound (A), (R)-4-(5-(cyclopropylethynyl)isoxazol-3-yl)-N-hydroxy-2-methyl-2-(methylsulfonyl)butanamide] |  |  |  |  |  | significantly deliquescent | developed a brownish color over time; also recorded: tended to darken on standing at ambient temperature |  |  |
| C[C@@](CCc1cc(C#CC2CC2)on1)(C(=O)NO)S(C)(=O)=O [crystalline Compound (A), (R)-4-(5-(cyclopropylethynyl)isoxazol-3-yl)-N-hydroxy-2-methyl-2-(methylsulfonyl)butanamide] |  |  |  |  |  | low hygroscopicity |  | 3.2% | 1.3% |
